Experimental data from US20100184790A1, “PYRROLO[2,3-B]PYRIDINE COMPOUNDS, AZAINDOLE COMPOUNDS USED FOR SYNTHESIZING SAID PYRROLO[2,3-B]PYRIDINE COMPOUNDS, METHODS FOR THE PRODUCTION THEREOF, AND USES THEREOF” (CENTRE NATIONAL DE LA RECHERCHE SCIENTIFIQUE, priority 2007, published 2010).
Like-named read-outs stand apart in the source and are kept apart here.

How the values were obtained:
CDK2/cyclin A = molecular target: T1, CDK2/cyclin A (Homo sapiens, UniProt P24941); experiment: CDK2/cyclin A kinase assay; format: biochemical; conditions: 15 μM ATP, 30° C., histone H1; read-out: IC50 CDK2/cyclinA
T1 construct: made in house; host or cells: insect cells
Protocol: CDK2/cyclin A (human, recombinant, expressed in insect cells) was assayed as described for CDK1/cyclin B.

CDK5/p25 = CDK5/p25 (Homo sapiens, UniProt Q00535); experiment: CDK5/p25 kinase assay; format: biochemical, mammalian
Protocol: CDK5/p25 was reconstituted by mixing equal amounts of recombinant mammalian CDK5 and p25 expressed in E. coli as GST (glutathione S-transferase) fusion protein and purified by affinity chromatography on glutathione-agarose (vectors provided by Doctor L. H. Tsai) (p25 is a truncated version of p35, the 35-kDa CDK5 activator). Its activity was assayed with histone H1 in buffer C as described for CDK1/cyclin B.

GSK-3α/β = GSK-3α/β kinase assay (GS-1 peptide); format: biochemical, porcine; conditions: 15 μM ATP, 30° C.
Protocol: After incubating at 30° C. for 30 (thirty) minutes, the 25 μl aliquots of the supernatant were treated as described above.

CK1δ/ε = CK1δ/ε kinase assay (CK1-specific peptide); format: biochemical, porcine; conditions: 15 μM ATP, 30° C.
Protocol: CK1δ/ε was purified from porcine brain by affinity chromatography on an immobilized axin fragment. It was assayed as described for CDK1 but using a CK1-specific peptide substrate.

DYRK1A = DYRK1A (Rattus norvegicus, UniProt Q63470); experiment: DYRK1A kinase assay (myelin basic protein); format: biochemical
SH-SY5Y cells = experiment: Cell survival, MTS reduction, SH-SY5Y; format: cell-based; conditions: Homo sapiens, Table 2, exposed for 24 hours, read-out: IC50 survival of SH-SY5Y cells (MTS reduction)
Protocol: The human neuroblastoma cell line SH-SY5Y was grown in a DMEM medium with L-glutamine originating from Invitrogen (Cergy Pontoise, France), antibiotics and 10% by volume of FCS originating from Invitrogen. […] These compounds were also tested at various concentrations with regard to their effects on SH-SY5Y and HEK293 cells. […] The IC50 values were calculated from the dose-response curves and are given in micromoles (mean±standard deviation of two independent measurements carried out in triplicate). […] The survival of the cells was estimated by the assaying of the degree of reduction of MTS induced by this exposure. […] The ICS© values were calculated from dose-response curves and are given in micromoles in table 3 below.

CDK1/cyclin B = CDK1/cyclin B kinase assay (histone H1, [γ-33P]-ATP); conditions: read-out: IC50 CDK1/cyclin B, 15 μM ATP, 30° C.
Protocol: Controls were prepared with appropriate dilutions of dimethyl sulfoxide.
After incubating at 30° C. for 30 minutes, 25 μl aliquots of the supernatant were spotted onto filters made of Whatman P81 phosphocellulose paper and, 20 seconds later, the filters were washed 5 times (for at least 5 (five) minutes each time) in a solution of 10 ml of phosphoric acid/liter of water. The wet filters were subjected to counting in the presence of an ACS scintillation fluid from Amersham.

CDK9/cyclin T = molecular target: T2, CDK9/cyclin T (Homo sapiens, UniProt P50750); experiment: CDK9/cyclin T kinase assay; format: biochemical; conditions: 15 μM ATP, 30° C., pRB fragment
T2 construct: made in house; host or cells: insect cells

[1] = 15 μM ATP, 30° C., histone H1, read-out: IC50 CDK5/p25
[2] = 15 μM ATP, 30° C., myelin basic protein, read-out: IC50 DYRK1A

Chain of CDK5/p25 (Q00535 whole entry, species assumed, the tested form may be a part): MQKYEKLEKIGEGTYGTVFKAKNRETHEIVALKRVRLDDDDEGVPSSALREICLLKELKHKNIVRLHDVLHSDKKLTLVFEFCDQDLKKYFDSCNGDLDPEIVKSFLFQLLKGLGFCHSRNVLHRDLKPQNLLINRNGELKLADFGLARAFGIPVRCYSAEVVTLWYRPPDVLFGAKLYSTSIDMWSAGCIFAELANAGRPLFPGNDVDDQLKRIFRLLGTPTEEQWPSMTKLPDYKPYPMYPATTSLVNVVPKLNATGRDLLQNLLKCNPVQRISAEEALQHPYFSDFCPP
Chain of CDK5/p25 (Q15078 99-307 partner limits assumed, species assumed): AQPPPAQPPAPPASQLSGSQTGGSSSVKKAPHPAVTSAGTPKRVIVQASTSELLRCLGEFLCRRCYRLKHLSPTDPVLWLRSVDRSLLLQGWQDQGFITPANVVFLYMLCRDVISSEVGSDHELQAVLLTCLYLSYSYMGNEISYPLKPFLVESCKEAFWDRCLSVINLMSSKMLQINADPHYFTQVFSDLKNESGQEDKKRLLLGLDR
T2 sequence (P50750 whole entry, the tested form may be a part): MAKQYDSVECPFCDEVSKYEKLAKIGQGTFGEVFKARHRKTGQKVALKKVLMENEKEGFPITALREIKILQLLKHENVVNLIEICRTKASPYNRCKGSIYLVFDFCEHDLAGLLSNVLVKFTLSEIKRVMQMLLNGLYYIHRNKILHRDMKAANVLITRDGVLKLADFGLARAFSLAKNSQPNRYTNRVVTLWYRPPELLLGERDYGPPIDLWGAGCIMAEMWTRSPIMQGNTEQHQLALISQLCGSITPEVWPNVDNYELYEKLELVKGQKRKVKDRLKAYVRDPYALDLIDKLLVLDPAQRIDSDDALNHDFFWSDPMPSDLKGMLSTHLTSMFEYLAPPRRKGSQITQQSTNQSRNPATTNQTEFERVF
T2 sequence (O60563 whole entry partner, the tested form may be a part): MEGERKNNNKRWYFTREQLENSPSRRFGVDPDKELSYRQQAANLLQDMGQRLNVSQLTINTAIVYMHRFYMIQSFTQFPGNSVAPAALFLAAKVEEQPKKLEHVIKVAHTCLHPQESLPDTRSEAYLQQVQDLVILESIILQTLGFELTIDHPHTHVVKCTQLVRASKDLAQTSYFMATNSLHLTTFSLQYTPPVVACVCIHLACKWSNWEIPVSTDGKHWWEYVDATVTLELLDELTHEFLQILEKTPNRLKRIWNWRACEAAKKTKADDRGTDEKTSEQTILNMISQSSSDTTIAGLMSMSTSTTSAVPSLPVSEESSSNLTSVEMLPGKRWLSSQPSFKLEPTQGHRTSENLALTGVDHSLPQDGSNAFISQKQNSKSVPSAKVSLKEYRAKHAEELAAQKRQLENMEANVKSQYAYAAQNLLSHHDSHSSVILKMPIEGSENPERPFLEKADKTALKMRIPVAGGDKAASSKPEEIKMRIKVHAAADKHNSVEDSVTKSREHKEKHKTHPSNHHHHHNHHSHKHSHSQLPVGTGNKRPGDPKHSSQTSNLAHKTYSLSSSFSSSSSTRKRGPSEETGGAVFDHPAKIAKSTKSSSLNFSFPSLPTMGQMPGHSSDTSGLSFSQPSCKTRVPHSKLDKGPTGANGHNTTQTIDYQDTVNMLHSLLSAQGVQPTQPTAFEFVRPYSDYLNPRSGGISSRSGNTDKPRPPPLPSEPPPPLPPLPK

COc1cc(Br)nc2[nH]cc(-c3ccnc(N)n3)c12 [Meriolin 4n, 3-[(2-amino)pyrimidin-4-yl]-6-bromo-4-methoxy-1H-pyrrolo[2,3-b]pyridine] showed a melting point of over 210 °C.

Compound CCCCCc1ccnc2[nH]cc(-c3ccnc(N)n3)c12 [Meriolin 19, 3-[(2-amino)pyrimidin-4-yl]-4-pentyl-1H-pyrrolo[2,3-b]pyridine] has an IC50 (CDK2/cyclin A) of 195 nM, an IC50 (CDK5/p25; [1]) of 200 nM and an IC50 (GSK-3α/β) of 1750 nM. The IC50 (CK1δ/ε) was 8100 nM, the IC50 (DYRK1A; [2]) was 56 nM and the IC50 (SH-SY5Y cells) was 13000 nM. The melting point was over 210 °C and the IC50 (CDK1/cyclin B) was 350 nM.

Work on Nc1nccc(-c2c[nH]c3nccc(CCc4ccccc4)c23)n1 [Meriolin 22, 3-[(2-amino)pyrimidin-4-yl]-4-phenethyl-1H-pyrrolo[2,3-b]pyridine] yielded an IC50 (CDK2/cyclin A) of 73 nM, an IC50 (CDK5/p25; [1]) of 130 nM and an IC50 (GSK-3α/β) of 800 nM. For the same compound, the IC50 (DYRK1A; [2]) was 73 nM, the IC50 (SH-SY5Y cells) was 2400 nM and the melting point was 196 to 198 °C. It also gave an IC50 (CDK1/cyclin B) of 200 nM.

COc1ccnc2c1c(-c1ccnc(N)n1)cn2C [Meriolin 9, 3-[(2-amino)pyrimidin-4-yl]-4-methoxy-1-methyl-1H-pyrrolo[2,3-b]pyridine] gave an IC50 (CDK1/cyclin B) of 25000 nM.

With COc1ccnc2[nH]cc(-c3ccnc(SC)n3)c12 [Meriolin 12, 4-methoxy-3-[2-(methylsulfanyl)pyrimidin-4-yl]-1H-pyrrolo[2,3-b]pyridine, reference compound] the IC50 (GSK-3α/β) was 7000 nM, the IC50 (CK1δ/ε) was 600 nM and the IC50 (DYRK1A; [2]) was 1000 nM. The IC50 (SH-SY5Y cells) was over 100000 nM and the IC50 (CDK1/cyclin B) was 1800 nM.

With CC(C)Oc1ccnc2[nH]cc(-c3ccnc(N)n3)c12 [Meriolin 6, 3-[(2-amino)pyrimidin-4-yl]-4-(1-methylethoxy)-1H-pyrrolo[2,3-b]pyridine] the IC50 (GSK-3α/β) was 21 nM, the IC50 (CK1δ/ε) was 140 nM and the IC50 (CDK1/cyclin B) was 8 nM.

Work on Nc1nccc(-c2c[nH]c3nccc(-c4ccccc4)c23)n1 [Meriolin 23, 3-[(2-amino)pyrimidin-4-yl]-4-phenyl-1H-pyrrolo[2,3-b]pyridine] yielded an IC50 (CDK2/cyclin A) of 9 nM, an IC50 (CDK5/p25; [1]) of 7 nM and an IC50 (GSK-3α/β) of 80 nM. For the same compound, the IC50 (DYRK1A; [2]) was 50 nM, the IC50 (SH-SY5Y cells) was 88 nM and the melting point was over 210 °C. For the same compound, the IC50 (CDK1/cyclin B) was 10 nM.

With COc1ccnc2[nH]cc(-c3ccncn3)c12 [Meriolin 14, 4-methoxy-3-(pyrimidin-4-yl)-1H-pyrrolo[2,3-b]pyridine] the IC50 (GSK-3α/β) was 1100 nM, the IC50 (CK1δ/ε) was 600 nM and the IC50 (DYRK1A; [2]) was 230 nM. For the same compound, the IC50 (SH-SY5Y cells) was 10200 nM and the IC50 (CDK1/cyclin B) was 1300 nM.

Nc1nccc(-c2c[nH]c3nccc(OCC4CCCCC4)c23)n1 [Meriolin 16, 3-[(2-amino)pyrimidin-4-yl]-4-(cyclohexylmethoxy)-1H-pyrrolo[2,3-b]pyridine] gave an IC50 (CDK2/cyclin A) of 1.2 nM, an IC50 (CDK5/p25; [1]) of 3 nM and an IC50 (GSK-3α/β) of 6 nM. The IC50 (CK1δ/ε) was over 100 nM, the IC50 (DYRK1A; [2]) was 45 nM and the IC50 (SH-SY5Y cells) was 22 nM. The melting point was over 210 °C and the IC50 (CDK1/cyclin B) was 2.2 nM.

Compound Nc1nccc(-c2c3c(O)ccnc3n3c(N)nccc23)n1 [Variolin B, reference compound] has an IC50 (CDK2/cyclin A) of 80 nM, an IC50 (CDK5/p25) of 90 nM and an IC50 (CDK9/cyclin T) of 26 nM. It also gave an IC50 (GSK-3α/β) of 70 nM, an IC50 (CK1δ/ε) of 5 nM and an IC50 (DYRK1A) of 80 nM. For the same compound, the IC50 (SH-SY5Y cells) was 240 nM and the IC50 (CDK1/cyclin B) was 60 nM.

Cn1cc(-c2ccnc(N)n2)c2c(O)ccnc21 [Meriolin 8, 3-[(2-amino)pyrimidin-4-yl]-4-hydroxy-1-methyl-1H-pyrrolo[2,3-b]pyridine] showed an IC50 (GSK-3α/β) of 4600 nM, an IC50 (CK1δ/ε) of 2300 nM and an IC50 (DYRK1A; [2]) of 1200 nM. For the same compound, the IC50 (SH-SY5Y cells) was over 30000 nM and the IC50 (CDK1/cyclin B) was 1200 nM.

Nc1nccc(-c2c[nH]c3nccc(Cl)c23)n1 [Meriolin 10, 3-[(2-amino)pyrimidin-4-yl]-4-chloro-1H-pyrrolo[2,3-b]pyridine] showed an IC50 (GSK-3α/β) of 2000 nM, an IC50 (CK1δ/ε) of 3000 nM and an IC50 (DYRK1A; [2]) of 130 nM. The IC50 (SH-SY5Y cells) was 1920 nM and the IC50 (CDK1/cyclin B) was 240 nM.

CCCC#Cc1ccnc2[nH]cc(-c3ccnc(N)n3)c12 [Meriolin 18, 3-[(2-amino)pyrimidin-4-yl]-4-(pent-1-ynyl)-1H-pyrrolo[2,3-b]pyridine] showed an IC50 (CDK2/cyclin A) of 5 nM, an IC50 (CDK5/p25; [1]) of 4.5 nM and an IC50 (GSK-3α/β) of 82 nM. It also gave an IC50 (CK1δ/ε) of 1300 nM, an IC50 (DYRK1A; [2]) of 20 nM and an IC50 (SH-SY5Y cells) of 100 nM. It also gave an IC50 (CDK1/cyclin B) of 11 nM.

In the case of Nc1nccc(-c2c[nH]c3nccc(C#Cc4ccccc4)c23)n1 [Meriolin 21, 3-[(2-amino)pyrimidin-4-yl]-4-(phenyleth-1-ynyl)-1H-pyrrolo[2,3-b]pyridine], the melting point is reported as over 210 °C.

Compound Nc1nccc(-c2c[nH]c3nccc(OCc4ccccc4)c23)n1 [Meriolin 15, 3-[(2-amino)pyrimidin-4-yl]-4-(benzyloxy)-1H-pyrrolo[2,3-b]pyridine] has an IC50 (CDK2/cyclin A) of 1.6 nM, an IC50 (CDK5/p25; [1]) of 2 nM and an IC50 (CDK9/cyclin T) of 7.2 nM. It also gave an IC50 (GSK-3α/β) of 3.3 nM, an IC50 (CK1δ/ε) of 130 nM and an IC50 (DYRK1A; [2]) of 40 nM. For the same compound, the IC50 (SH-SY5Y cells) was 13 nM, the melting point was over 210 °C and the IC50 (CDK1/cyclin B) was 2.3 nM.

COCCOc1ccnc2[nH]cc(-c3ccnc(N)n3)c12 [Meriolin 7, 3-(2-aminopyrimidin-4-yl)-4-(2-methoxyethoxyl)-1H-pyrrolo[2,3-b]pyridine] showed an IC50 (CDK2/cyclin A) of over 10000 nM, an IC50 (GSK-3α/β) of 63000 nM and an IC50 (CK1δ/ε) of 100000 nM. It also gave an IC50 (SH-SY5Y cells) of over 100000 nM and an IC50 (CDK1/cyclin B) of 35000 nM.

In the case of CCCOc1ccnc2[nH]cc(-c3ccnc(N)n3)c12 [Meriolin 5, 3-[(2-amino)pyrimidin-4-yl]-4-propoxy-1H-pyrrolo[2,3-b]pyridine], the IC50 (GSK-3α/β) is reported as 25 nM, the IC50 (CK1δ/ε) is reported as 200 nM and the IC50 (DYRK1A; [2]) is reported as 37 nM. The IC50 (SH-SY5Y cells) was 26 nM and the IC50 (CDK1/cyclin B) was 7 nM.

Compound Oc1ccnc2[nH]cc(-c3ccncn3)c12 [Meriolin 13, 3-(pyrimidin-4-yl)-4-hydroxy-1H-pyrrolo[2,3-b]pyridine] has an IC50 (GSK-3α/β) of 1800 nM and an IC50 (SH-SY5Y cells) of 28000 nM.

Nc1nccc(-c2c[nH]c3nccc(OC4CCCCC4)c23)n1 [Meriolin 17, 3-[(2-amino)pyrimidin-4-yl]-4-(cyclohexyloxy)-1H-pyrrolo[2,3-b]pyridine] showed an IC50 (CDK2/cyclin A) of 2.1 nM, an IC50 (CDK5/p25; [1]) of 2.1 nM and an IC50 (GSK-3α/β) of 4.1 nM. It also gave an IC50 (CK1δ/ε) of over 100 nM, an IC50 (DYRK1A; [2]) of 26 nM and an IC50 (SH-SY5Y cells) of 27 nM. For the same compound, the melting point was over 210 °C and the IC50 (CDK1/cyclin B) was 2.9 nM.

Work on CCOc1ccnc2[nH]cc(-c3ccnc(N)n3)c12 [Meriolin 4, 3-[(2-amino)pyrimidin-4-yl]-4-ethoxy-1H-pyrrolo[2,3-b]pyridine] yielded an IC50 (GSK-3α/β) of 30 nM, an IC50 (CK1δ/ε) of 100 nM and an IC50 (DYRK1A; [2]) of 32 nM. For the same compound, the IC50 (SH-SY5Y cells) was 81 nM and the IC50 (CDK1/cyclin B) was 10 nM.
